Assay results taken from article PMC10140010 (Investigational New Drugs, 2023).
Where “and” joins values, the source holds several entries; their conditions need not be identical. Equal entries are not always repeated.

How the values were obtained:
ABL = ABL (Homo sapiens, UniProt P00519); experiment: Z'-LYTE kinase selectivity; assay type: biochemical
CDK2 = CDK2 (Homo sapiens, UniProt P24941); experiment: Z'-LYTE kinase selectivity; assay type: biochemical
MINK = MINK (Homo sapiens, UniProt Q8N4C8); experiment: Z'-LYTE kinase selectivity; assay type: biochemical
CaMK2 alpha = CaMK2 alpha (Homo sapiens, UniProt Q9UQM7); experiment: Z'-LYTE kinase selectivity; assay type: biochemical
[1] = test system: Karpas299 (NPM-ALK) cells; experiment: Cell proliferation (CellTiter-Glo); assay type: cell-based
Experimental: (§1) Cell proliferation assay was performed using methods reported in the previous article. Cell proliferation was measured using the CellTiter-Glo® (CTG) Luminescent Cell Viability Assay (Promega, WI, USA). Cells were seeded in 96-well plates at 15,000 cells per well in detection medium containing 0.5% fetal bovine serum and placed in an incubator at 37℃ and 5% CO2 overnight. On the following day, iruplinalkib was serially diluted with DMSO, further diluted in assay medium, and added to the designated wells for serial dilution of iruplinalkib to the target gradient concentration.

Ba/F3 cells = experiment: Cell proliferation (CellTiter-Glo); assay type: cell-based; conditions: Mus musculus, BaF3
Experimental: as §1

[2] = test system: NIH-3T3 (CD74-ROS1) cells; experiment: Cell proliferation (CellTiter-Glo); assay type: cell-based; conditions: Mus musculus, NIH3T3
Experimental: as §1

[3] = test system: NCI-H1975 (EGFR^L858R/T790M) cells; experiment: Cell proliferation (CellTiter-Glo); assay type: cell-based; conditions: Homo sapiens, NCI-H1975
Experimental: as §1

[4] = test system: HCC-78 (SLC34A2-ROS1) cells; experiment: Cell proliferation (CellTiter-Glo); assay type: cell-based; conditions: Homo sapiens, HCC78
Experimental: as §1

[5] = test system: Ba/F3 (SLC34A2-ROS1) cells; experiment: Cell proliferation (CellTiter-Glo); assay type: cell-based; conditions: Mus musculus, BaF3
Experimental: as §1

CHK1 = CHK1 (Homo sapiens, UniProt O14757); experiment: Z'-LYTE kinase selectivity; assay type: biochemical
c-MET = c-MET (Homo sapiens, UniProt P08581); experiment: Z'-LYTE kinase selectivity; assay type: biochemical
LCK = LCK (Homo sapiens, UniProt P06239); experiment: Z'-LYTE kinase selectivity; assay type: biochemical
JAK2 = JAK2 (Homo sapiens, UniProt O60674); experiment: Z'-LYTE kinase selectivity; assay type: biochemical
[6] = test system: NCI-H3122 (EML4-ALK) xenograft; experiment: NCI-H3122 cell line-derived xenograft model (tumor volume, body weight); assay type: in vivo, BALB/c nude mice; conditions: for Tumor volume, individual animals: in mm³
Experimental: Female BALB/c nude mice (4–6 weeks old) were provided by Shanghai Sipple-Bikai Laboratory Animal Co., Ltd. and Beijing Vital River Laboratory Animal Technology Co., Ltd. The mice were housed in a specific pathogen-free environment under a 12 h light/dark cycle, and had free access to sterile animal feed and water.
PDX and CDX models were used for in vivo studies. Patient-derived tumors tissues were divided into about 30 mm^3 and transplanted into the right dorsal subcutis. Treatment began when the tumor size reached to 200 mm^3. The mice were randomly assignied into the corresponding dosing groups (9 mice in each group). Drugs were deliverd via daily oral for 4 weeks. Tumor size was measured periodically using a digital caliper (Cal Pro, Sylvac, Switzerland), and tumor volume was calculated as 0.5 × length × width^2. For more detailed information, please refer to Supplementary materials. All procedures and protocols of xenograft models were approved by the Institutional Animal Care and Use Committee of WuXi AppTec.
NCI-H3122 cells were re-suspended with 0.9% sodium chloride, and then 6×10^6 cells in 100 μL was inoculated subcutaneously into the right armpit of nude mice to prepare solid tumor models under sterile conditions. […] Groups were gavaged once daily with the base dose of drug for 21 days. The blank control group was given the same volume of vehicle (sterile water) injection according to the same protocol, with the dose volume of 100 μL/10 g.

DYRK3 = DYRK3 (Homo sapiens, UniProt O43781); experiment: Z'-LYTE kinase selectivity; assay type: biochemical
CK1 alpha = CK1 alpha (Homo sapiens, UniProt P48729); experiment: Z'-LYTE kinase selectivity; assay type: biochemical
GSK3 beta = GSK3 beta (Homo sapiens, UniProt P49841); experiment: Z'-LYTE kinase selectivity; assay type: biochemical
[7] = test system: phosphorylation of ALK, AKT, ERK, STAT3 and STAT5 in NCI-H3122 tumor tissue; experiment: Phosphorylation of downstream signal molecules in tumor tissue of NCI-H3122 xenograft; assay type: in vivo, BALB/c nude mice; conditions: 8 h after administration
Experimental: In general, the cells were exposed to the drug and were harvested for western blot analysis. SDS-PAGE was used to separate the proteins of interest, which were then transferred to a nitrocellulose (NC) filtration membrane and soaked in a blocking solution [5% non-fat dry milk in tris-buffered saline with Tween 20 (TBST)] for 1 h at room temperature. Thereafter, the membrane was probed overnight with primary antibodies at 4℃ and washed three times with TBST. The corresponding secondary antibody diluent was added, incubated at room temperature for 1 h, and washed 3 times with TBST. After adding the enhanced chemiluminescence developer to the NC filtration membrane, it is developed in the imaging system (ChemiDoc™ XRS^+, BIO-RAD). See Supplementary Table 2 for details of the antibodies used.
In order to check how iruplinalkib exerts its anti-tumor effects in vivo, tumor tissue samples were collected at 1 and 8 h after the last dose, and the phosphorylation level of downstream signaling pathways molecules were detected.

SRC = SRC (Homo sapiens, UniProt P12931); experiment: Z'-LYTE kinase selectivity; assay type: biochemical
JNK1 = JNK1 (Homo sapiens, UniProt P45983); experiment: Z'-LYTE kinase selectivity; assay type: biochemical
MST4 = MST4 (Homo sapiens, UniProt Q9P289); experiment: Z'-LYTE kinase selectivity; assay type: biochemical
[8] = 2.5mg/kg PO QD×21, day 0 after administration
[9] = 2.5mg/kg PO QD×21, day 3 after administration
[10] = 2.5mg/kg PO QD×21, day 6 after administration
[11] = 2.5mg/kg PO QD×21, day 9 after administration
[12] = 2.5mg/kg PO QD×21, day 13 after administration
[13] = 2.5mg/kg PO QD×21, day 16 after administration
[14] = 2.5mg/kg PO QD×21, day 20 after administration
[15] = 5mg/kg PO QD×21, day 0 after administration
[16] = 5mg/kg PO QD×21, day 3 after administration
[17] = 5mg/kg PO QD×21, day 6 after administration
[18] = 5mg/kg PO QD×21, day 9 after administration
[19] = 5mg/kg PO QD×21, day 13 after administration
[20] = 5mg/kg PO QD×21, day 16 after administration
[21] = 5mg/kg PO QD×21, day 20 after administration

Sequence of CK1 alpha (P48729 whole entry): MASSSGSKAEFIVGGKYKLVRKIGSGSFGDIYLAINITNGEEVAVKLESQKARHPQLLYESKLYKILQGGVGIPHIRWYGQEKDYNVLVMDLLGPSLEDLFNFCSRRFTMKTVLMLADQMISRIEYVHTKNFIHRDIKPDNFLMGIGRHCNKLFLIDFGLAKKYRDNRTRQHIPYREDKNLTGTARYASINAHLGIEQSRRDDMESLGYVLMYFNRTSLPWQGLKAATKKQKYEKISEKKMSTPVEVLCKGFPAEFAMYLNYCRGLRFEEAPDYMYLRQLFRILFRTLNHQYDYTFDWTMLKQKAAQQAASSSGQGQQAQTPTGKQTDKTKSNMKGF
Sequence of MINK (Q8N4C8 whole entry): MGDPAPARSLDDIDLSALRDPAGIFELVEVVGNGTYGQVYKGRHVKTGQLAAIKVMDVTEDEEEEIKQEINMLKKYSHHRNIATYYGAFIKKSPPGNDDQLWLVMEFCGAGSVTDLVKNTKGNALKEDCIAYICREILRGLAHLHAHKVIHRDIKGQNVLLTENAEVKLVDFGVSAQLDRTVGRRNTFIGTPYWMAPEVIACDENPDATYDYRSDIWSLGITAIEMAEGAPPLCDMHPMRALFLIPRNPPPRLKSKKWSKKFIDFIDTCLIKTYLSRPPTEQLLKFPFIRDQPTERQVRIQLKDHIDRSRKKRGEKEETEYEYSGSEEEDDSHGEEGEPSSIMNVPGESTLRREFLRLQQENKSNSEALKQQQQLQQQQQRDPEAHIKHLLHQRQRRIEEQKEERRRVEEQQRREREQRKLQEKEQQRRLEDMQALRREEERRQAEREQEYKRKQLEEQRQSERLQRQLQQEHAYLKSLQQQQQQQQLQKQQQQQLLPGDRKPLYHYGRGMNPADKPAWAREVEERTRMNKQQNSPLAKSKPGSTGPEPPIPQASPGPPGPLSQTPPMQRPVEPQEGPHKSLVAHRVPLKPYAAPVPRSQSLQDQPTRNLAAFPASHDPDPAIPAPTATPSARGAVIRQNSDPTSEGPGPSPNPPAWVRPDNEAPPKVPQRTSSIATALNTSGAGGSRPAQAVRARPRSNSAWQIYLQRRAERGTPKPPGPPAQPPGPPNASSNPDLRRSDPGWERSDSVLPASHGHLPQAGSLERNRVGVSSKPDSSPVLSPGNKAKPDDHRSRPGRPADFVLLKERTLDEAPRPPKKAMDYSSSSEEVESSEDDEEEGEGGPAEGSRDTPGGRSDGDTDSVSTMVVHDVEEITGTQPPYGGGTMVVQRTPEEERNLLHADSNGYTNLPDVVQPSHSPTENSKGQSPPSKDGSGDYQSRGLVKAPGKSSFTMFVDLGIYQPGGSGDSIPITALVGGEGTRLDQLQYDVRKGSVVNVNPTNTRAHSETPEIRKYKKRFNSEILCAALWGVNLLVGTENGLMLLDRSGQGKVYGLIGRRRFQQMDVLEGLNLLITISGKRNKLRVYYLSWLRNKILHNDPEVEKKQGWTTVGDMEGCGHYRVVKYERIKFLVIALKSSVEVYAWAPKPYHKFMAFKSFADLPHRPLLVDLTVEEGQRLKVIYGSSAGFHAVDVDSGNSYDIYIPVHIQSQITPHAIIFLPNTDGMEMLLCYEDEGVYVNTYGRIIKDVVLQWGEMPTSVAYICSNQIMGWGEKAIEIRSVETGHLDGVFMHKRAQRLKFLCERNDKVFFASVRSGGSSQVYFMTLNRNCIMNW
Sequence of JNK1 (P45983 whole entry): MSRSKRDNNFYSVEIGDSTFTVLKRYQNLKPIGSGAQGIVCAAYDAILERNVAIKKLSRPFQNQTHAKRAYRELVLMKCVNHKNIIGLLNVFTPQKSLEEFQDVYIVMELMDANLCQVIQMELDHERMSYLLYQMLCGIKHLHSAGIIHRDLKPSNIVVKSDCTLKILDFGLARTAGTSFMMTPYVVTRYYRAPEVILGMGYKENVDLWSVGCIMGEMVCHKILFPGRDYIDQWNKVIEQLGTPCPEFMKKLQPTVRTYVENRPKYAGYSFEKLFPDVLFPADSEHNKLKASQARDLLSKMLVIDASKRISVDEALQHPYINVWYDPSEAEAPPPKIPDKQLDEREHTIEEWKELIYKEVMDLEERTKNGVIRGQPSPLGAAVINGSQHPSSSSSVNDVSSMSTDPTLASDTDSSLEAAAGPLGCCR
Sequence of ABL (P00519 whole entry): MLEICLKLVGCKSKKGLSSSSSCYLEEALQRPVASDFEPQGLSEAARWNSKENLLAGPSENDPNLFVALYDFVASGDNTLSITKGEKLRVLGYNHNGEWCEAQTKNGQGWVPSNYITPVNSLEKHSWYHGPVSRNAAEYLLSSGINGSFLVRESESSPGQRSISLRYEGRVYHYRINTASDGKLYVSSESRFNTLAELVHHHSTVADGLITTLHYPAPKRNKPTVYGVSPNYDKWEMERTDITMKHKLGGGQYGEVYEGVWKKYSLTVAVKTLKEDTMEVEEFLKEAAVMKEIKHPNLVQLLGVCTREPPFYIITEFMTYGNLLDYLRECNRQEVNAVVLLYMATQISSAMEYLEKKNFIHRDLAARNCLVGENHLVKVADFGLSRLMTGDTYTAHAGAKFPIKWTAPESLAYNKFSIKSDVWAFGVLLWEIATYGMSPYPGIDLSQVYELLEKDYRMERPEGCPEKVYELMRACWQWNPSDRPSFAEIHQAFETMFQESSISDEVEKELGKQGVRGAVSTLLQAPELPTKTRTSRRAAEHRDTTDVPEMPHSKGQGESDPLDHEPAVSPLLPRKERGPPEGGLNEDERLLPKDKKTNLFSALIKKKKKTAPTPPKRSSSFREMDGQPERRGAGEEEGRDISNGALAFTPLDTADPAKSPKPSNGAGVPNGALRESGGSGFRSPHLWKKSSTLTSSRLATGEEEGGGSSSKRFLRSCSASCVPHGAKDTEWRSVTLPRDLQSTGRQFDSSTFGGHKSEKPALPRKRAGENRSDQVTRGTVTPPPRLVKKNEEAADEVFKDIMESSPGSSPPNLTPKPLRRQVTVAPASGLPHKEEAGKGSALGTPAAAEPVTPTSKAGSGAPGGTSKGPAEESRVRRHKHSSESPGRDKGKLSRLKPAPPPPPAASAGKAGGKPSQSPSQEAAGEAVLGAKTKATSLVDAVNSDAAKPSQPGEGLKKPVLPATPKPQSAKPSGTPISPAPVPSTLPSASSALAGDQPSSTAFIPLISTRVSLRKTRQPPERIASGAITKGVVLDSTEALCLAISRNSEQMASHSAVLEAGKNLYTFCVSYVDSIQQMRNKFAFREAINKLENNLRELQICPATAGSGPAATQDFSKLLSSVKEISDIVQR
Sequence of CHK1 (O14757 whole entry): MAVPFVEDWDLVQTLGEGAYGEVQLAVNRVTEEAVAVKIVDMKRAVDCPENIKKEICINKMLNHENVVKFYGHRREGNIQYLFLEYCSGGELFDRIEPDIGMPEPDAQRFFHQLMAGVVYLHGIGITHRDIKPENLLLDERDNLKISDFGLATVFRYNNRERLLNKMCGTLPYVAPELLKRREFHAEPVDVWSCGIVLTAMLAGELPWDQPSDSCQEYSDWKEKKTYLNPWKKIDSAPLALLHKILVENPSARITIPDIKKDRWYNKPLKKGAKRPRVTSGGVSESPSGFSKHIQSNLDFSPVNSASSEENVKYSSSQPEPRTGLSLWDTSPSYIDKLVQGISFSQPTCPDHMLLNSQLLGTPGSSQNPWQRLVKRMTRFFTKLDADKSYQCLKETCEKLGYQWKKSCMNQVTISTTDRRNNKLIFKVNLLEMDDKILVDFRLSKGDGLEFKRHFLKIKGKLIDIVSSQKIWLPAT
Sequence of DYRK3 (O43781 whole entry): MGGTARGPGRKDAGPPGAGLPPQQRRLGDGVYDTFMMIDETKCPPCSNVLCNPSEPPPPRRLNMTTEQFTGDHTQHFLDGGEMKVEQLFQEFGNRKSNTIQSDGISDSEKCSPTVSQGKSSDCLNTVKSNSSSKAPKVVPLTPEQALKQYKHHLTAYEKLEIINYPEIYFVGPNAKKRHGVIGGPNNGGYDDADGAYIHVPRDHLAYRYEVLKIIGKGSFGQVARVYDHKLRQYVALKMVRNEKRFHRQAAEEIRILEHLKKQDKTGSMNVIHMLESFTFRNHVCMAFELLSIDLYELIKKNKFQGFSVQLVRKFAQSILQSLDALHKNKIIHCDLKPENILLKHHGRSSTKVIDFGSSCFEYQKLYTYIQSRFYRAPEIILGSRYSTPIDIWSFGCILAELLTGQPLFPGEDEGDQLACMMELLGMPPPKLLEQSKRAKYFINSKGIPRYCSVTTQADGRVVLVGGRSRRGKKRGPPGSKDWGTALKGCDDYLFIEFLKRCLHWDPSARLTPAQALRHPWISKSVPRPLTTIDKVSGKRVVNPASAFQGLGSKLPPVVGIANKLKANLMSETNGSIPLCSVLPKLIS
Sequence of LCK (P06239 whole entry): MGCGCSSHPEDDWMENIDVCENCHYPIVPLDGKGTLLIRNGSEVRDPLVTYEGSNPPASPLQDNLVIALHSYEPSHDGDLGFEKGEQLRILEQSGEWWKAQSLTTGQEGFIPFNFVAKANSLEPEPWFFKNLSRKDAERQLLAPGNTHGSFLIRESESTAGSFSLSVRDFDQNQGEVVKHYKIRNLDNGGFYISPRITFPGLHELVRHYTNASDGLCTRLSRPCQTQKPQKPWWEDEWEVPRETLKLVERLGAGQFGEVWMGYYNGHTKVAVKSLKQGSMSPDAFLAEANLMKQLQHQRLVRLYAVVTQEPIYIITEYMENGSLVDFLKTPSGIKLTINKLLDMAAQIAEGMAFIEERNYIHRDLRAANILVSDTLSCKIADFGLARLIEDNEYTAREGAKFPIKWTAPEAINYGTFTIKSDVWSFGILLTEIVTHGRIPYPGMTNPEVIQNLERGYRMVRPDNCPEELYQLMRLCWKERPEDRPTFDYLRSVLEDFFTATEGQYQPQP

## COc1cc(N2CCC3(CCN(C)CC3)CC2)ccc1Nc1ncc(Cl)c(Nc2ccccc2P(C)(C)=O)n1 [Iruplinalkib]
ABL
  IC50: 576 ± 108 nM
CDK2
  IC50: 1560 ± 1130 nM
MINK
  IC50: 3890 ± 1060 nM
CaMK2 alpha
  IC50: 939 ± 99 nM
[1]
  IC50: 4.5 ± 0.7 nM
Ba/F3 cells
  IC50: 2210 ± 94 nM
[2]
  IC50: 342 nM
[3]
  IC50: 508 ± 96 nM
[4]
  IC50: 228 nM
[5]
  IC50: 4.05 nM
CHK1
  IC50: 185 ± 41 nM
c-MET
  IC50: 2940 ± 232 nM
LCK
  IC50: 825 ± 243 nM
JAK2
  IC50: 595 ± 12 nM
[6]; [8]
  Tumor volume Mean: 176 mm³
  Tumor volume, individual animals: 188 and 164 and 230 and 150 and 236 and 136 and 182 and 147
[6]; [9]
  Tumor volume Mean: 295 mm³
  Tumor volume, individual animals: 324 and 257 and 368 and 284 and 366 and 229 and 267 and 234
[6]; [10]
  Tumor volume Mean: 449 mm³
  Tumor volume, individual animals: 431 and 392 and 594 and 476 and 695 and 327 and 410 and 337 and 384
[6]; [11]
  Tumor volume Mean: 606 mm³
  Tumor volume, individual animals: 596 and 541 and 738 and 570 and 1128 and 398 and 498 and 499 and 486
[6]; [12]
  Tumor volume Mean: 694 mm³
  Tumor volume, individual animals: 630 and 635 and 849 and 718 and 1127 and 586 and 573 and 580 and 545
[6]; [13]
  Tumor volume Mean: 887 mm³
  Tumor volume, individual animals: 729 and 821 and 1141 and 926 and 1167 and 805 and 883 and 751 and 758.9
[6]; [14]
  Tumor volume Mean: 972 mm³
  Tumor volume, individual animals: 760 and 976 and 1087 and 1021 and 1125 and 811 and 1040 and 1032 and 895
[6]; [15]
  Tumor volume Mean: 177 mm³
  Tumor volume, individual animals: 233 and 239 and 173 and 121 and 155 and 235
[6]; [16]
  Tumor volume Mean: 260 mm³
  Tumor volume, individual animals: 306 and 299 and 256 and 223 and 292 and 296
[6]; [17]
  Tumor volume Mean: 371 mm³
  Tumor volume, individual animals: 537 and 487 and 339 and 249 and 357 and 438
[6]; [18]
  Tumor volume Mean: 430 mm³
  Tumor volume, individual animals: 567 and 541 and 407 and 332 and 403 and 534
[6]; [19]
  Tumor volume Mean: 531 mm³
  Tumor volume, individual animals: 666 and 699 and 523 and 388 and 515
[6]; [20]
  Tumor volume Mean: 624 mm³
  Tumor volume, individual animals: 718 and 880 and 646 and 506 and 603
[6]; [21]
  Tumor volume Mean: 727 mm³
  Tumor volume, individual animals: 811 and 875 and 702 and 717 and 714
[6]; 10mg/kg PO QD×21, day 0 after administration
  Tumor volume Mean: 174 mm³
[6]; 10mg/kg PO QD×21, day 3 after administration
  Tumor volume Mean: 190 mm³
[6]; 10mg/kg PO QD×21, day 6 after administration
  Tumor volume Mean: 204 mm³
[6]; 10mg/kg PO QD×21, day 9 after administration
  Tumor volume Mean: 240 mm³
[6]; 10mg/kg PO QD×21, day 13 after administration
  Tumor volume Mean: 243 mm³
[6]; 10mg/kg PO QD×21, day 16 after administration
  Tumor volume Mean: 218 mm³
[6]; 10mg/kg PO QD×21, day 20 after administration
  Tumor volume Mean: 233 mm³
DYRK3
  IC50: 8010 ± 583 nM
CK1 alpha
  IC50: > 10000 nM
GSK3 beta
  IC50: > 10000 nM
[7]
  levels of phosphorylation of STAT3 and STAT5 in tumor tissue: decreased
SRC
  IC50: 1680 ± 872 nM
JNK1
  IC50: 2040 ± 1170 nM
MST4
  IC50: 1400 ± 251 nM
